target: T1, EP2 receptor (Homo sapiens, UniProt P43116); experiment: hEP2 cAMP assay (SF295 glioblastoma cells, HTRF cAMP, PGE2 stimulation); type: cell-based; conditions: antagonistic activity
T1 construct: SF295 glioblastoma cells express high endogenous EP2 and no EP4; host or cells: SF295 glioblastoma cells
How it was run: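 HTRF cAMP readout gave % cAMP relative to DMSO, fitted to IC50 with duplicate points. Compounds were preincubated 45 min at room temperature with EP2-expressing, EP4-negative SF295 cells in IBMX (2 mM)-containing buffer before a 30 min challenge with PGE2 at 75 nM final, its EC80.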

T1 sequence (P43116 whole entry): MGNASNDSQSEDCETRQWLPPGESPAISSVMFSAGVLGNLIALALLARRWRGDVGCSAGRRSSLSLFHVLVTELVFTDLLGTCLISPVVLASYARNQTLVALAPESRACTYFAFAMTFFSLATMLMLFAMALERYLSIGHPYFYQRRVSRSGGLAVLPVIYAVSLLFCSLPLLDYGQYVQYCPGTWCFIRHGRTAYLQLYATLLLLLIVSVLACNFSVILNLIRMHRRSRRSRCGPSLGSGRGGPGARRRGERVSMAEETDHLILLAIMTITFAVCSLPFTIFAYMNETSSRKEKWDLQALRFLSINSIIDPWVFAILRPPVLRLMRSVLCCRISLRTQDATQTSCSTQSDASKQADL

Row | SMILES | IC50 [µM]
1 | COc1cc(-c2cc(NCCc3c(C)sc4c(OC)ccc(Cl)c34)ncn2)ccc1C(=O)O [Example 40, 4-{6-[2-(4-Chloro-7-methoxy-2-methyl-benzo[b]thiophen-3-yl)-ethylamino]-pyrimidin-4-yl}-2-methoxy-benzoic acid] | 0.094
2 | Cc1cc(-c2cc(NCCc3c(C)oc4c(C)cc(Cl)cc34)ncn2)sc1C(=O)O [Example 4, 5-{6-[2-(5-Chloro-2,7-dimethyl-benzofuran-3-yl)-ethylamino]-pyrimidin-4-yl}-3-methyl-thiophene-2-carboxylic acid] | 0.033
3 | CSc1cc(-c2cc(NCCc3c(C)oc4c(C)cc(F)cc34)ncn2)ccc1C(=O)O [Example 16, 4-{6-[2-(5-Fluoro-2,7-dimethyl-benzofuran-3-yl)-ethylamino]-pyrimidin-4-yl}-2-methylsulfanyl-benzoic acid] | 0.021
4 | CCOc1cc(-c2cc(NCCc3c(C)oc4c(OC)cc(Cl)cc34)ncn2)ccc1C(=O)O [Example 70, 4-{6-[2-(5-Chloro-7-methoxy-2-methyl-benzofuran-3-yl)-ethylamino]-pyrimidin-4-yl}-2-ethoxy-benzoic acid] | 0.08
5 | Cc1sc2c(C)cc(F)cc2c1CCNc1cc(-c2cc3c(C(=O)O)cccc3[nH]2)ncn1 [Example 82, 2-{6-[2-(5-Fluoro-2,7-dimethyl-benzo[b]thiophen-3-yl)-ethylamino]-pyrimidin-4-yl}-1H-indole-4-carboxylic acid] | 0.021
6 | CCc1cc(-c2cc(NCCc3c(C)sc4c(C)cc(F)cc34)ncn2)cc(C)c1CC(=O)O [Example 194, (2-Ethyl-4-{6-[2-(5-fluoro-2,7-dimethyl-benzo[b]thiophen-3-yl)-ethylamino]-pyrimidin-4-yl}-6-methyl-phenyl)-acetic acid] | 0.326
7 | CCOc1cc(-c2cc(NCCc3c(C)sc4c(C)cc(F)cc34)ncn2)sc1CC(=O)O [Example 52, (3-Ethoxy-5-{6-[2-(5-fluoro-2,7-dimethyl-benzo[b]thiophen-3-yl)-ethylamino]-pyrimidin-4-yl}-thiophen-2-yl)-acetic acid] | 0.095
8 | Cc1cc(-c2cc(NCCc3c(C)oc4c(C)cc(F)cc34)ncn2)sc1C(=O)O [Example 2, 5-{6-[2-(5-Fluoro-2,7-dimethyl-benzofuran-3-yl)-ethylamino]-pyrimidin-4-yl}-3-methyl-thiophene-2-carboxylic acid] | 0.023
9 | CCOc1cc(-c2cc(NCCc3c(C)oc4c(C)cc(F)cc34)ncn2)ccc1C(=O)O [Example 69, 2-Ethoxy-4-{6-[2-(5-fluoro-2,7-dimethyl-benzofuran-3-yl)-ethylamino]-pyrimidin-4-yl}-benzoic acid] | 0.074
10 | COc1cc(F)c(F)c2c(CCNc3cc(-c4ccc(C(=O)O)c(OC5CC5)c4)ncn3)c(C)oc12 [Example 85, 2-Cyclopropoxy-4-{6-[2-(4,5-difluoro-7-methoxy-2-methyl-benzofuran-3-yl)-ethylamino]-pyrimidin-4-yl}-benzoic acid] | 0.049

Next, values leading:

Row | IC50 [µM] | SMILES
11 | 0.077 | CCOc1cc(-c2cc(NCCc3c(C#N)sc4c(OC)cccc34)ncn2)ccc1C(=O)O [Example 54, 4-{6-[2-(2-Cyano-7-methoxy-benzo[b]thiophen-3-yl)-ethylamino]-pyrimidin-4-yl}-2-ethoxy-benzoic acid]
12 | 0.04 | CCOc1cc(-c2cc(NCCc3c(C)sc4c(OC)ccc(F)c34)ncn2)ccc1C(=O)O [Example 55, 2-Ethoxy-4-{6-[2-(4-fluoro-7-methoxy-2-methyl-benzo[b]thiophen-3-yl)-ethylamino]-pyrimidin-4-yl}-benzoic acid]
13 | 0.044 | COc1cc(Cl)cc2c(CCNc3cc(-c4ccc(C(=O)O)c(OC5CC5)c4)ncn3)c(C)oc12 [Example 83, 4-{6-[2-(5-Chloro-7-methoxy-2-methyl-benzofuran-3-yl)-ethylamino]-pyrimidin-4-yl}-2-cyclopropoxy-benzoic acid]
14 | 0.008 | CCOc1cc(-c2cc(NCCc3c(C)sc4c(OC)ccc(Cl)c34)ncn2)sc1C(=O)O [Example 30, 5-{6-[2-(4-Chloro-7-methoxy-2-methyl-benzo[b]thiophen-3-yl)-ethylamino]-pyrimidin-4-yl}-3-ethoxy-thiophene-2-carboxylic acid]
15 | 0.008 | CCOc1cc(-c2cc(NCCc3c(C)sc4ccccc34)ncn2)ccc1C(=O)O [Example 72, 2-Ethoxy-4-{6-[2-(2-methyl-benzo[b]thiophen-3-yl)-ethylamino]-pyrimidin-4-yl}-benzoic acid]
16 | 0.048 | CCCc1cc(-c2cc(NCCc3c(C)sc4c(C)cc(F)cc34)ncn2)ccc1C(=O)O [Example 45, 4-{6-[2-(5-Fluoro-2,7-dimethyl-benzo[b]thiophen-3-yl)-ethylamino]-pyrimidin-4-yl}-2-propyl-benzoic acid]
17 | 0.024 | CSc1cc(-c2cc(NCCc3c(C)sc4c(C)c(F)ccc34)ncn2)ccc1C(=O)O [Example 21, 4-{6-[2-(6-Fluoro-2,7-dimethyl-benzo[b]thiophen-3-yl)-ethylamino]-pyrimidin-4-yl}-2-methylsulfanyl-benzoic acid]
